The results in this text go back to patent US20040266811A1, “Methods for inducing regeneration, remyelination, and hypermyelination of nervous tissue” (priority 2002, published 2004).

Experiment [1] has as its target T1, full-length FKBP52 (GST fusion protein) (Homo sapiens, UniProt Q02790).
T1 construct: GST-FKBP52 was constructed by PCR amplification of full-length FKBP52 from the pcDNA3 vector; made in house; host or cells: bacteria
T1 sequence (Q02790 1-459): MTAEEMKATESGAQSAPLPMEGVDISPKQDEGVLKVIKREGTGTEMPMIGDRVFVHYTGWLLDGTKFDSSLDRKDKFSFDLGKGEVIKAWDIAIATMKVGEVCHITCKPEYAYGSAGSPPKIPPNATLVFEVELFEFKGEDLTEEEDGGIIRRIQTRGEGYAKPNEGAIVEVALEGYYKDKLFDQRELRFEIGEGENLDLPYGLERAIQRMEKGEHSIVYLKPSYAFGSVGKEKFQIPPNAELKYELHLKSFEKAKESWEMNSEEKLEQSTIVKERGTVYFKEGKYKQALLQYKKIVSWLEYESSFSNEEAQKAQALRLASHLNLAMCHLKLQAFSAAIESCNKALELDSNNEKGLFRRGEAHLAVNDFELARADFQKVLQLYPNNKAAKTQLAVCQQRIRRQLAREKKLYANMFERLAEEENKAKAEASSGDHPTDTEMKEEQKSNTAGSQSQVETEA
The experiment is described as follows: 3H-FK506 competition assay on bead-immobilized GST-FKBP52. It counts as binding. As to conditions: 10 nM FK506 with 3H-dihydro-FK506, 200-fold molar excess of cold ligand. On the procedure: There was virtually no binding of GST alone to FKBP52 (not shown). […] Full-length FKBP52 was expressed as a GST fusion protein, purified over GSH-Sepharose resin. […] After extensive washing, the bound fraction (gray bars) was determined by liquid scintillation counting. […] Values are averages (with standard deviations) of three independent experiments.
Competition of […] binding to FKBP52 was carried out on GSH Sepharose beads from GST-FKBP52 expressed in bacteria. Briefly, GST-FKBP52 was constructed by PCR amplification of full-length FKBP52 from the pcDNA3 vector (Invitrogen, Carlsbad, Calif.), with FKBP52-specific primers flanked by EcORI/BamH1 restriction endonuclease sites. A 1.4-kb fragment was subsequently ligated into EcORI/BamH1, and digested with CIP-treated pGEX-6p to obtain a GST-fusion protein. The correct reading frame was verified by DNA sequencing. GST-FKBP52 fusion proteins were generated upon induction with 0.1 mM IPTG (from a 500-ml culture), and bacterial lysates were incubated with GSH Sepharose beads (Pharmacia, Peapack, N.J.) to collect FKBP52. Following several washes, first in bacterial lysis buffer and subsequently in PBS, the FKBP52 was over 90% pure, and was used for in vitro competition studies.

For experiment [2], the system named is TrkA-overexpressing PC12 cells. The experiment is described as follows: Schwann cell conditioned media on TrkA-overexpressing PC12 cells. It counts as cell-based. Particulars: Schwann cells 1 μM GM-284 48 h; CM on PC12 72 h. The procedure:
Wild-type and TrkA-overexpressing PC12 cells (Hempstead et al., Overexpression of the trk tyrosine kinase rapidly accelerates nerve growth factor-induced differentiation. Neuron, 9:883-96, 1992) were maintained in DMEM supplemented with 10% calf serum and 5% horse serum, the latter of which was also supplemented with 200 μg/ml G418 to maintain TrkA selection. Cultures were treated with 100 ng/ml NGF or the immunophilin ligands, or treated with Schwann-cell-conditioned medium supplemented with 5% horse serum, as indicated below. To generate GFP-expressing PC12 cells, a bicistronic pCX-bsr retroviral vector (Escalante et al., Phosphorylation of c-Crk II on the negative regulatory Tyr222 mediates nerve growth factor-induced cell spreading and morphogenesis. J. Biol. Chem., 275:24787-797, 2000), which drives expression of green fluorescent protein (GFP), was used to infect dividing PC12 cells.
To more directly examine the involvement of Schwann cells in mediating the neuritogenic capacities of GM-284, PC12 cells were infected with GFP-expressing retrovirus, and co-cultured on monolayers of Schwann cells, in the presence of either NGF, GM-284, or vehicle, for 48 h (FIG. 4B, panels a-c). […]

In experiment [3] the test system is SCIP and Brn-5 expression in Schwann cells. Kind of experiment: RNA (Northern) blot for SCIP and Brn-5 in Schwann cells. The experiment is classed as cell-based, Sprague-Dawley rats. Particulars: 1 μM GM-284, 48 h, growth-factor-starved Schwann cells. The procedure:
To further assess the ability of GM-284 to regulate these genes, Schwann cells were maintained in DMEM containing FCS, and without forskolin or GGF, for 48 h, to rest the cells. Thereafter, 1 μM GM-284 was added for an additional 48 h. Total RNA was isolated, run on a denaturing agarose gel, transferred to a nylon filter, and hybridized with probes complimentary to either SCIP (panel a) or Brn-5 (panel b). Cyclophilin RNA was probed as a loading control.
20 μg of total RNA was prepared as previously described (Wu et al., The POU gene brn-5 is induced by neuregulin and is restricted to myelinating Schwann cells. Mol. Cell Neurosci., 17:683-95, 2001). Thereafter, total RNA was separated on 1% MOPS-formaldehyde agarose gels, transferred to MAGNA nylon transfer membrane (MSI), UV cross-linked (120 mJ/cm 2) using a UV crosslinker (FB-UVXL-1000, Fisher Biotech), and hybridized with ^32P-dCTP random-labeled (RTS RadPrime DNA Labeling System, Gibco BRL), probes purified by Sephadex G-50 column (Pharmacia, Peapack, N.J.).
The Brn-5 probe contains the rat Brn-5 coding region (generated by PCR), and was kindly provided by Dr. Bogi Andersen at the University of California at San Diego. This probe is 93% identical to the mouse Brn-5 mRNA. The SCIP probe was a 1.10-kb SmaI cDNA fragment from mouse SCIP DNA. […]

“Also recorded” adds a separate entry of the source.

As for `CCC(C)(C)C(=O)C(=O)N1CCC[C@H]1c1nnc([C@@H]2CCCN2C(=O)C(=O)C(C)(C)CC)o1` [GM-284], the “competition for binding of 3H-FK506 to immobilized FKBP52” value in experiment [1] is “bind to FKBP52 with similar affinities; also recorded: each ligand is able to compete for binding to the receptor; also recorded: competes with FK506 for binding to full-length FKBP52”. For the same molecule, the “neurite outgrowth induced by conditioned media from treated Schwann cells” value in experiment [2] is reported as “promoted significant neurite outgrowth; also recorded: Neurite promotion was observed only in the GM-284-treated Schwann cells' conditioned media”. Besides, the “SCIP and Brn-5 RNA expression relative to vehicle-treated cells” value in experiment [3] is “significantly induced; also recorded: induces Schwann cell expression of SCIP (Oct-6) and Brn-5”.
